The values that follow come from PMC6733504, “Effects of flavoring compounds used in electronic cigarette refill liquids on endothelial and vascular function” (PLoS ONE, 2019).

In assay [1] the target is T1, soluble guanylate cyclase (sGC) (Bos taurus, UniProt P16068+P19687).
T1 construct: The activity of sGC purified from bovine lung; from tissue; host or cells: bovine lung
T1 sequence (P19687 1-691): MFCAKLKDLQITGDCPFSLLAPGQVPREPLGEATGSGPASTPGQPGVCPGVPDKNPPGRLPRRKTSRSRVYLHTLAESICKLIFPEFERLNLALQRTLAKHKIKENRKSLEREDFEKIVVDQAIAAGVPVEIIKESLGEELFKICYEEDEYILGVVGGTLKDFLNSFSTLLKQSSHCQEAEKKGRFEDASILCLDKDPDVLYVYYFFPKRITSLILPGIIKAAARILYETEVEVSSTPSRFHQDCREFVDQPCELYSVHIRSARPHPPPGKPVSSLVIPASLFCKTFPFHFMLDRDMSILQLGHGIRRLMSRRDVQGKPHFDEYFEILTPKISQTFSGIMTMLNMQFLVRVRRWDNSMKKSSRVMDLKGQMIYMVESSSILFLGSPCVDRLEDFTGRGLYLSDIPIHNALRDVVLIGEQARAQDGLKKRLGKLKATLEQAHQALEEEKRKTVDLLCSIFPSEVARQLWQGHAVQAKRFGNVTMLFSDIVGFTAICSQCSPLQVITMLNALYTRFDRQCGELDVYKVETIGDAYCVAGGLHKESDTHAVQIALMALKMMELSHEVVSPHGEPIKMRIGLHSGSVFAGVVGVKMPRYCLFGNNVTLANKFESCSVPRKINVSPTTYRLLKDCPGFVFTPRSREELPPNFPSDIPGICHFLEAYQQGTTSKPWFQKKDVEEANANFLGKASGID
T1 sequence (P16068 1-619): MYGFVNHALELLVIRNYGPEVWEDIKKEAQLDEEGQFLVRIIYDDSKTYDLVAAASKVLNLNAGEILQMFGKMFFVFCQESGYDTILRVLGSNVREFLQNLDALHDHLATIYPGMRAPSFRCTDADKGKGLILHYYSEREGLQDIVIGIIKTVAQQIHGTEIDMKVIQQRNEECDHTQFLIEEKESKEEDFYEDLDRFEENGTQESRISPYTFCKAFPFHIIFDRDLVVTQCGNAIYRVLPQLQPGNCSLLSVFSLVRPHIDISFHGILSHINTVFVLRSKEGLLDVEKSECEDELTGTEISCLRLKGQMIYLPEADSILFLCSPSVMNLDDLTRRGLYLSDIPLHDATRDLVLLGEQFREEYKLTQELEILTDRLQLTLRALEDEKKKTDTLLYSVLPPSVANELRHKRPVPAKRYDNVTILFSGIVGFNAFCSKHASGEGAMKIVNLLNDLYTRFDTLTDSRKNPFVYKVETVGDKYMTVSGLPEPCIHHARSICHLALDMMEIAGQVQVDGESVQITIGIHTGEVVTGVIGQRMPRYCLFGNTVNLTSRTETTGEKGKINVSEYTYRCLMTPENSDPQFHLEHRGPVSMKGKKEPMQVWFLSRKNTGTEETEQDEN
As to the kind of experiment: Activity of purified sGC stimulated with DEA/NO. The class given is biochemical, bovine. The settings on record: control. The protocol:
The activity of sGC purified from bovine lung was determined as formation of [^32P]cGMP from [α-^32P]GTP. The purified enzyme (50 ng) was incubated at 37°C for 10 min in a final volume of 0.1 ml in the absence or presence of flavorings with the NO donor DEA/NO at concentrations indicated in the figure legends, followed by isolation of [^32P]cGMP and quantification of radioactivity (Cerenkov radiation) in a β counter.
To test for reversibility of inhibition, sGC (50 ng) was preincubated in the absence or presence of the respective compounds for 5 minutes at 37°C, followed by 50-fold dilution in the assay mixtures and incubation with DEA/NO at 37°C for 10 minutes.

In assay [2] the test system is rat aortic rings. As to the kind of experiment: Relaxation of U-46619 precontracted aortic rings to DEA/NO. The settings on record: read-out: EC50 of vascular relaxation to DEA/NO. The procedure:
(§1) Animal experiments were performed in compliance with the Austrian law on experimentation with laboratory animals (last amendment 2013) based on the European Union guidelines for the Care and the Use of Laboratory Animals (European Union Directive 2010/63/EU). Unsexed Sprague-Dawley rats (obtained from Charles River, Sulzfeld, Germany) were housed at the local animal facility in approved cages. They were fed standard chow (Altromin 3023; obtained from Königshofer Futtermittel, Ebergassing, Austria) and received water ad libitum. Animals were euthanized in a box that was gradually filled with CO2 until vital signs had ceased (cessation of respiration and circulation). […]
(§2) For isometric tension measurements, vessel rings with intact endothelium were suspended in 5-ml organ baths containing oxygenated Krebs-Henseleit buffer (concentrations in mM: NaCl 118.4, NaHCO3 25, KCl 4.7, KH2PO4 1.2, CaCl2 2.5, MgCl2 1.2, D-Glucose 11; pH 7.4), as previously described in detail. After equilibration for 60 min at the optimal resting tension of 20 mN, maximal contractile activity was determined with a depolarizing solution containing 60 mM K^+. […]
(§3) Effects are expressed as percent of relaxation of U-46619-induced contraction. Concentration-response curves of different ring segments from a single animal were averaged and counted as an individual experiment.

Assay [3] concerns endothelium-denuded rat aortic rings. The experiment in a line: cAMP and cGMP levels in endothelium-denuded aortic rings. The settings on record: 10 µM. The text has this: 1 S4 Table. […]
2 endothelium-denuded rat aortic rings.
Flavoring (fmol x mg-1) (fmol x mg-1)
4 En d o th e liu m-denuded rings, treated with test compounds as described in the
5 Materials and methods section of the main text, were freeze-clamped when maximal
6 relaxation had been reached. Rings were homogenized in 5% trichloroacetic acid
7 and analyzed for cAMP and cGMP by radioimmunoassay. Forskolin and DEA/NO
8 were used to induce maximal accumulation of cAMP and cGMP, respectively. Data
9 shown are mean values±SEM of 3 (forskolin and DEA/NO) or 6 (basal,
10 cinnamaldehyde and eugenol) rings; n.d., not determined, *p<0.05 vs. basal (ANOVA
11 and Dunnett's post hoc test).

The test system of assay [4] is rat aortic rings. As to the kind of experiment: Relaxation of U-46619 precontracted aortic rings to acetylcholine. The settings on record: vehicle, no flavoring, 95% CI, read-out: EC50 of vascular relaxation to acetylcholine. The procedure: as §1, §2, §3

In the case of `CCN(CC)[N+]([O-])=NO` [DEA/NO, 2,2-Diethyl-1-nitroso-oxyhydrazine, reference compound], the “Maximal sGC activity with DEA/NO” value in assay [1] (no flavoring) is 28±0.9 μmol cGMP x min^-1 x mg^-1. In addition, the EC50 is 37 nM in assay [1] (no flavoring (0.1% DMSO), 95% CI, read-out: EC50 of DEA/NO for sGC stimulation) and 43 nM with rat aortic rings [2]. Also, in assay [3], the cGMP stood at 4917±1483 fmol x mg-1.
With `CC(=O)OCC[N+](C)(C)C` [acetylcholine], the EC50 in the assay on rat aortic rings [4] amounted to 55 nM.
